From patent publication EP0655506B1 (priority 1994, dated 1995)

Assays:
Assay type in all cases: biochemical, bacteriophage T7
[1] = molecular target: T1, T7 DNA polymerase Y526F (Escherichia phage T7, UniProt P00581, DEL118-145/Y526F); experiment: Gel electrophoresis-based rate of incorporation of dideoxynucleotides relative to deoxynucleotides, varying the ratio of dNTPs to ddNTPs (Example 7); details: 10 µM 4 dNTPs, ddNTP 100 to 2,000 µM; ddNTP:dNTP ratio giving fragments comparable to T7 DNA polymerase, multiplied by its Example 6 ratio
T1 construct: made in house; host or cells: strain that produces E. coli thioredoxin (lac promoter)
T1 sequence (P00581 other isoform, or with tags, fused parts or gaps DEL118-145/Y526F): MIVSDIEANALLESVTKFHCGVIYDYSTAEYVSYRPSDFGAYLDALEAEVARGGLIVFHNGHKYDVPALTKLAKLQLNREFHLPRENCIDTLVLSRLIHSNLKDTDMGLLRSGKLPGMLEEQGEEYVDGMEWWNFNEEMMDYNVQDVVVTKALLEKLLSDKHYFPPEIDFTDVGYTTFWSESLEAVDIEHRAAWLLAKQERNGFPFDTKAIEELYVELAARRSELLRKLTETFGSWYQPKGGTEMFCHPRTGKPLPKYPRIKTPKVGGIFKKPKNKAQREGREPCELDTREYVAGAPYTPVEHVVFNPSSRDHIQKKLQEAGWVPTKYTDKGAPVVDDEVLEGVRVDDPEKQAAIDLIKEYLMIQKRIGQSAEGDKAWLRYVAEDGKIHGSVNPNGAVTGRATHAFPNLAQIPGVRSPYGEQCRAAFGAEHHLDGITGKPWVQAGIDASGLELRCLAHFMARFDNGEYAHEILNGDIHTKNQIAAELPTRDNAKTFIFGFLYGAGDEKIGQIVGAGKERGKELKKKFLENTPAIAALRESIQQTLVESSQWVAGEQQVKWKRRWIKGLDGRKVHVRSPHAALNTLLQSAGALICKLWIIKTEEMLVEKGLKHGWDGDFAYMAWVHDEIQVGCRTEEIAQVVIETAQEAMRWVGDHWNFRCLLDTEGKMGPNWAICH
T1 sequence (P0AA25 2-109, stated change not applied, further chain): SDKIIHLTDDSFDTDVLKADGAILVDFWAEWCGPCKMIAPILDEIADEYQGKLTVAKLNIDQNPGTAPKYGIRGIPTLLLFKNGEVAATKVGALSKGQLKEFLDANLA
Experimental: This example is similar to that described in Example 6. While it is the preferred test for DNA polymerases that discriminate strongly against the incorporation of dideoxynucleotides (e.g. T7 DNA polymerase Y526F, E. coli DNA polymerase I and Taq DNA polymerase), it also works well with DNA polymerases that efficiently incorporate ddNMPs (e.g. T7 DNA polymerase, E. coli DNA polymerase I mutant F762Y and Taq DNA polymerase mutant F667Y).
The average length of a series of fragments is determined in one of two ways. […] The position of the front marking the appearance of visible radioactive bands is usually relatively sharp and readily observed by eye. However, it is also possible to determine such positions more precisely using the Phosphoimager to locate the position in each lane where a certain threshold of radioactivity per unit area occurs, starting at the top of the gel and moving down the gel.
Some DNA polymerases discriminate very strongly against the incorporation of dideoxynucleotides, in which case it is difficult to add sufficient ddNTPs to the reaction to clearly detect the position of the largest dideoxy-terminated fragments on a denaturing polyacrylamide gel. For such DNA polymerases, one can use an alkaline agarose gel electrophoresis to compare the lengths of the dideoxy-terminated fragments in the different series.
These tests were carried out using the six DNA polymerases described in Example 6. The reaction conditions were identical to that described in Example 6 except for the concentrations of dNTPs and ddNTPs. All reaction mixtures contained 10 µM 4 dNTPs. Each of the four ddNTP concentrations were varied by two-fold increments in the following ranges for the six DNA polymerases as follows: T7 DNA polymerase, E. coli DNA polymerase I F762Y, and Taq DNA polymerase F667Y , 0.02 µM to 1 µM, and T7 DNA polymerase Y526F, E. coli DNA polymerase I and Taq DNA polymerase, 100 to 2,000 µM. The reactions were carried out and the samples were analyzed by denaturing polyacrylamide gel electrophoresis as described in Example 6. Drying of the gel, autoradiography, and Phosphoimager analysis were as described in Example 6. The Table below summarizes the results from this experiment; the values shown for T7 DNA polymerase, E. coli DNA polymerase I F762Y, and Taq DNA polymerase F667Y are the absolute ratios obtained in Example 6 by statistical analysis of the rate of exponential decay in intensity of dideoxy-terminated fragments obtained using a 1:1 ratio of dNTPs to ddNTPs. […] This factor was multiplied by the absolute ratios obtained for T7 DNA polymerase, E. coli DNA polymerase I F762Y, and Taq DNA polymerase F667Y in Example 6 in order to obtain the values shown below for T7 DNA polymerase Y526F, E. coli DNA polymerase I and Taq DNA polymerase, respectively.

[2] = molecular target: T2, T7 DNA polymerase mutant T7 C-T3, R R S A K T F I Y G F L Y G (Escherichia phage T7, UniProt P00581, D519R/DEL118-145/N520S); experiment: SDS activity gel analysis, incorporation of ddNMP relative to dNMP (Example 2); details: renatured enzyme in gel; 1.5 µM 4dNTPs with or without 30 µM ddTTP; 37 °C 4 hr
T2 construct: made in house; host or cells: induced cells of a strain producing E. coli thioredoxin; crude lysate, renatured in gel
T2 sequence (P00581 other isoform, or with tags, fused parts or gaps DEL118-145/D519R/N520S): as the sequence (P00581 other isoform, or with tags, fused parts or gaps DEL118-145/Y526F) above, with D491R, N492S, F498Y counted along it
T2 sequence (P0AA25 2-109, stated change not applied, further chain): as the sequence (P0AA25 2-109, stated change not applied, further chain) above
Experimental: (§1) Mutant DNA polymerases are screened for their ability to incorporate dideoxynucleotides by SDS activity gel analysis. The procedure is a modification of that described by Spanos and Hübscher 91 Methods in Enzymology 263, 1983 and Karawya et al. 135 Analytical Biochemistry 318, 1983. Briefly, 10 ml of cells are induced for 4 to 6 hours and then pelleted. The cell pellet is resuspended in 0.3 ml 25 mM Tris HCl, pH 7.0, 5 mM EDTA. 20 µl of the resuspended cells are mixed with 40 µl of a solution of 1% SDS (sodium dodecyl sulfate), 2% mercaptoethanol, 30 % glycerol, 0.04% bromphenol blue, and 100 mM TrisHCl, pH 6.8. The mixtures are incubated at 37 °C for 5 min, and then 20 µl aliquots are loaded in duplicate onto two SDS polyacrylamide gels. The SDS polyacrylamide gels consist of a resolving gel that contains 8% polyacrylamide, 0.27% bisacrylamide, 190 mM TrisHCl, pH 8.8, 0.05% SDS, and 25 µg/ml denatured salmon sperm DNA, and a stacking gel that consists of 5% polyacrylamide, 0.17% bisacrylamide, 150 mM TrisHCl, pH 6.8, and 0.1% SDS. The two gels are electrophoresed at 100 V for 13 hr at a constant temperature of 13 °C in an electrophoresis buffer consisting of 190 mM TrisHCl and pH 8.8, 0.05% SDS.
(§2) After electrophoresis, the gels are washed over 8 hr in 4 changes of 500 ml each of Renaturation Buffer (50 mM Tris.HCl, pH 7.5, 5 mM magnesium acetate, 1 mM dithiothreitol, 40 mM KCI, 400 µg/ml bovine serum albumin, 16% glycerol and 0.95 mM EDTA) at 4 °C.
(§3) The renatured proteins are assayed for DNA polymerase activity by incubating each of the two gels in 6 ml of Renaturation Buffer, 1.5 µM 4dNTPs, 4 µl of [a-^32P]dATP (800 Ci/mmol, 10 mCi/ml), and 80 µg of purified thioredoxin. One of the mixtures also contains 30 µM ddTTP (a 20-fold molar excess over dTTP). The mixtures are incubated for 4 hr at 37 °C (70 °C for 2 hr for thermophilic DNA polymerases).
(§4) After incubation the gels are washed for 8 hr against four changes of 5% trichloracetic acid and 1% sodium pyrophosphate. The gels are then dried and autoradiographed.
(§5) To determine whether a mutant DNA polymerase is discriminating more or less against ddTTP, the intensities of the radioactive bands are compared on the two gels that were incubated in the presence and absence of ddTTP, and the ratio of the signal in the two bands for the unmodified DNA polymerase is compared with the ratio of the signal in the two bands for each of the mutants.

[3] = molecular target: T3, T7 DNA polymerase mutant T7 C-T7, R D N A K T F N Y G F L Y G (Escherichia phage T7, UniProt P00581, DEL118-145/I525N); experiment: as above; details: renatured enzyme in gel; 1.5 µM 4dNTPs with or without 30 µM ddTTP; 37 °C 4 hr
T3 construct: made in house; host or cells: induced cells of a strain producing E. coli thioredoxin; crude lysate, renatured in gel
T3 sequence (P0AA25 2-109, stated change not applied): as the sequence (P0AA25 2-109, stated change not applied, further chain) above
T3 sequence (P00581 other isoform, or with tags, fused parts or gaps DEL118-145/I525N): as the sequence (P00581 other isoform, or with tags, fused parts or gaps DEL118-145/Y526F) above, with I497N, F498Y counted along it
Experimental: as §1, §2, §3, §4, §5

[4] = molecular target: T4, T7 DNA polymerase mutant T7 C-T2, R R S A K A I N F G L I Y G (Escherichia phage T7, UniProt P00581, D519R/DEL118-145/F524I/F528L/I525N/L529I/N520S/T523A/Y526F); experiment: as above; details: renatured enzyme in gel; 1.5 µM 4dNTPs with or without 30 µM ddTTP; 37 °C 4 hr
T4 construct: made in house; host or cells: induced cells of a strain producing E. coli thioredoxin; crude lysate, renatured in gel
T4 sequence (P00581 other isoform, or with tags, fused parts or gaps DEL118-145/D519R/N520S/T523A/F524I/I525N/Y526F/F528L/L529I): as the sequence (P00581 other isoform, or with tags, fused parts or gaps DEL118-145/Y526F) above, with D491R, N492S, T495A, F496I, I497N, F500L, L501I counted along it
T4 sequence (P0AA25 2-109, stated change not applied, further chain): as the sequence (P0AA25 2-109, stated change not applied, further chain) above
Experimental: as §1, §2, §3, §4, §5

[5] = molecular target: T5, T7 DNA polymerase mutant T7 C-T4, R D N A K A I N F G F L Y G (Escherichia phage T7, UniProt P00581, DEL118-145/F524I/I525N/T523A/Y526F); experiment: as above; details: renatured enzyme in gel; 1.5 µM 4dNTPs with or without 30 µM ddTTP; 37 °C 4 hr
T5 construct: made in house; host or cells: induced cells of a strain producing E. coli thioredoxin; crude lysate, renatured in gel
T5 sequence (P00581 other isoform, or with tags, fused parts or gaps DEL118-145/T523A/F524I/I525N/Y526F): as the sequence (P00581 other isoform, or with tags, fused parts or gaps DEL118-145/Y526F) above, with T495A, F496I, I497N counted along it
T5 sequence (P0AA25 2-109, stated change not applied, further chain): as the sequence (P0AA25 2-109, stated change not applied, further chain) above
Experimental: as §1, §2, §3, §4, §5

Compound: Nc1ncnc2c1ncn2[C@H]1CC[C@@H](COP(=O)(O)OP(=O)(O)OP(=O)(O)O)O1 [ddATP]
- Incorporation Rate Ratios (dN/ddN) [1]: 7,300

Compound: Nc1ccn([C@H]2CC[C@@H](COP(=O)(O)OP(=O)(O)OP(=O)(O)O)O2)c(=O)n1 [ddCTP]
- Incorporation Rate Ratios (dN/ddN) [1]: 11,000

Compound: Nc1nc2c(ncn2[C@H]2CC[C@@H](COP(=O)(O)OP(=O)(O)OP(=O)(O)O)O2)c(=O)[nH]1 [ddGTP]
- Incorporation Rate Ratios (dN/ddN) [1]: 6,400

Compound: Cc1cn([C@H]2CC[C@@H](COP(=O)(O)OP(=O)(O)OP(=O)(O)O)O2)c(=O)[nH]c1=O [ddTTP]
- Incorporation Rate Ratios (dN/ddN) [1]: 8,400
- ddNTP Discrimination [2]: Low
- ddNTP Discrimination [3]: Low
- ddNTP Discrimination [4]: High
- ddNTP Discrimination [5]: High
